# Reference: publication PMC3724992, “Identification of new HLA-A*0201-restricted cytotoxic T lymphocyte epitopes from neuritin” (Journal of Neuro-Oncology, 2013)
# What was measured:
# [1] = biological target: T1, HLA-A*0201 molecules on T2 cells (Homo sapiens, UniProt P04439, D140Y/D185E/D98H/E176V/E277Q/G131W/G231S/I119V/I121R/I166T/I218V/L300P/L318F/N151K/N90K/P208A/P217A/Q86G/Q94H/R138H/R169H/T345S); assay: Peptide-binding assay: up-regulation of HLA-A*0201 on T2 cells; conditions: for FI (fluorescence index): 1 × 10^6 T2 cells, 50 μM peptide, serum-free RPMI 1640, β2-microglobulin 3 μg/ml, 16 h, 37 °C, flow cytometry with anti-HLA-A2 Ab (BB7.2) and FITC secondary, mean of triplicate; for affinity to HLA-A2.1 (in words): T2 cells, authors' grading of the Table 2 data
# T1 construct: endogenous in cells; host or cells: T2 cells
# Method: To determine whether the candidate epitopes can bind to HLA-A*0201 molecules, up-regulation of peptide-induced HLA-A*0201 molecules on T2 cells was examined. Briefly, according to previous reference, 1 × 10^6 T2 cells were incubated with 50 μM of the synthesized peptides in serum-free RPMI 1640 medium supplemented with β2-microglobulin (Sigma) at a concentration of 3 μg/ml for 16 h at 37 °C, 5 % CO2 [18]. Expression of HLA-A*0201 on T2 cells was then determined with the FACS Calibur flow cytometer (Becton–Dickinson, USA), by staining with primary anti-HLA-A2 Ab derived from BB7.2 and FITC-labeled goat-antimouse IgG (BD Biosciences Pharmingen, USA) secondary antibody. The data were analyzed using Cell Quest software (Becton–Dickinson, USA). The Fluorescence index (FI) was calculated as follows: FI = (mean FITC fluorescence with the given peptide − mean FITC fluorescence without peptide)/(mean FITC fluorescence without peptide). Samples were measured in triplicate and then mean FI was calculated. An octapeptide mHpa (519–526) ([…]) derived from mouse Hpa was served negative control.
# [2] = system: IFN-γ-producing T cells; assay: IFN-γ ELISPOT assay of peptide-induced effectors; format: cell-based; conditions: human HLA-A2+ donor T cells restimulated every 7 days with DCs pulsed with 100 μg/ml peptide; assessed on day 23; triplicate; compared to negative peptide control, P < 0.05
# Method: (§1) PBMCs were isolated from healthy HLA-A2+ donors by Ficoll–Hypaque density gradient centrifugation (TBC company, Tianjing, China) and then seeded into culture flasks in RPMI-1640 medium supplemented with penicillin (100 U/ml), streptomycin (100 μg/ml), and 10 % FBS. After monocytes adhered (incubation for 2 h), the nonadherent cells were collected and frozen in freeze medium (60 % RPMI-1640 and 30 % FBS, 10 % DMSO) for later use in CTL assays. The adherent cells were cultured for 5 days in RPMI-1640 containing 1,000 U/ml of granulocyte–macrophage colony-stimulating factor (R&D Systems, Inc., Minneapolis, MN) and interleukin-4 (IL-4; R&D Systems, Inc.) and were the cultured for an additional 2 days in the presence of 1,000 U/ml of tumor necrosis factor α (R&D Systems, Inc.) to induce final maturation. After 7 days of culture, the mature DCs were harvested and analyzed for DC typical phenotypes by FACS analysis.
# (§2) Briefly, DCs were loaded with different peptides at a final concentration of 100 μg/ml for 4 h and were then irradiated with 20 Gy, which prevented all outgrowths in the control cultures. Autologous T cells were restimulated every 7 days with the previously mentioned peptide-pulsed DCs to generate peptide-specific CTLs. Recombinant interleukin 2 (IL-2) at a concentration of 20 U/ml was added to the culture medium on day 3 after every stimulation. Cytotoxic T lymphocyte activity was then assessed on day 23 by a 4 h ^51Cr release assay. Effectors generated from negative peptide-pulsed DCs were used as controls.
# IFN-γ secretion of effectors was assayed by enzyme-linked immunospot (ELISPOT). Multiscreen 96-well assay plates (Dakewe, Shenzhen, China) were precoated overnight at 4 °C with anti-IFN-γ antibody according to the manufacturer’s instruction. After washing with PBST (PBS-0.05 % Tween 20), plates were blocked for 1 h at 37 °C with PBS/1 % BSA. […] After being air-dried, the number of spots in each well was counted using the Bioreader 4000 PRO-X (Bio-Sys; Germany).
# Fig. 2 Specific IFN-γ by ELISPOT assay. […] The IFN-γ secretion was then assessed on day 23. […]
# [3] = system: target cells expressing neuritin and HLA-A2.1; assay: 4-h 51Cr release cytotoxicity assay of CTLs induced in vitro; format: cell-based, human; conditions: PBMCs from four HLA-A2.1+ donors stimulated with peptide-pulsed DCs, E/T 25:1, 50:1, 100:1, triplicate
# Method: as §1, §2
# To evaluate the levels of CTL activity, a standard 4-h ^51Cr release assay was used. Briefly, target cells were incubated with ^51Cr (100 μCi per 1 × 10^6 cells) for 2 h in a 37 °C water bath. […] After a 4-h incubation, the supernatants were harvested, and the amount of released ^51Cr was measured with a gamma counter. The percent specific lysis was calculated according to the following formula: […]
# Fig. 3 Specific lysis of CTLs against target cells. […] After a 4-h incubation, the supernatants were harvested, and the amount of released ^51Cr was measured with a gamma counter. […]
# [4] = biological target: T2, HLA-A*0201/peptide complexes on T2 cells (Homo sapiens, UniProt P04439, D140Y/D185E/D98H/E176V/E277Q/G131W/G231S/I119V/I121R/I166T/I218V/L300P/L318F/N151K/N90K/P208A/P217A/Q86G/Q94H/R138H/R169H/T345S); assay: Peptide/HLA-A*0201 complex stability on T2 cells; format: binding; conditions: authors' grading of the Table 2 data
# T2 construct: Expression of HLA-A*0201 on T2 cells was then determined; endogenous in cells; host or cells: T2 cells
# Method: Briefly, T2 cells (10^6/ml) were incubated overnight with the candidate peptides, respectively, at a concentration of 20 μg/ml in serum-free medium supplemented with β2-microglobulin at a concentration of 3 μg/ml at 37 °C.
# Thereafter, they were washed four times to remove free peptides, incubated with Brefeldin A (10 µg/ml) for 1 h to block cell surface expression of newly synthesized HLA-A2.1 molecules, washed and incubated at 37 °C for 0, 2, 4, 6, or 8 h. Subsequently, cells were stained with anti-HLA-A2 antibody from BB7.2 cells to evaluate the HLA-A2.1 molecule expression. For each time point, peptide induced HLA-A*0201 expression was evaluated by the formula mentioned above. Dissociation complex50 (DC50) was defined as the time required for the loss of 50 % of the HLA-A*0201/peptide complexes stabilized at time = 0.
# [5] = system: neuritin and HLA-A2.1 positive cells; assay: In vivo immunogenicity: CTLs from immunized mice, 51Cr release assay; conditions: HLA-A*0201/Kb mice, 100 μg peptide in IFA, boosted once a week for three times, splenocytes 7 days after immunization as effectors
# Method: To evaluate the levels of CTL activity, a standard 4-h ^51Cr release assay was used. Briefly, target cells were incubated with ^51Cr (100 μCi per 1 × 10^6 cells) for 2 h in a 37 °C water bath. After incubation with ^51Cr, target cells were washed three times with PBS, resuspended in RPMI-1640 medium, and mixed with effector cells at a 25:1, 50:1 or 100:1 of effector to target (E/T) ratio. Assays were performed in triplicate for each sample at each ratio in a 96-well round-bottomed plate. After a 4-h incubation, the supernatants were harvested, and the amount of released ^51Cr was measured with a gamma counter. The percent specific lysis was calculated according to the following formula:
# Specific lysis = (experimental release − spontaneous release)/(maximal release − spontaneous release) × 100 %
# HLA-A*0201/Kb mice were immunized with 100 μg of various peptides prepared in incomplete Freund’s adjuvant (IFA) and boosted once a week for three times. As a control, mice were injected with an IFA emulsion without peptide. 7 days after immunization, splenocytes from injected animals were cultured and used as effector cells.
# Fig. 5 In vivo induction of epitope-specific CTLs in vivo. HLA-A*0201/Kb mice were immunized with 100 μg of various peptides prepared in incomplete Freund’s adjuvant (IFA) and boosted once a week for three times. As a control, mice were injected with an IFA emulsion without peptide. 7 days after immunization, splenocytes from injected animals were cultured and used as effector cells. The cytotoxic activities of CTLs were determined against target cells at various E/T ratios using ^51Cr release assay. […] Compared with controls, P < 0.05
Sequence,FI (fluorescence index) [1],affinity to HLA-A2.1 (in words) [1],stability to HLA-A2.1 (in words) [4],peptide-specific T cell response (frequency of IFN-γ-producing T cells) [2],induction of neuritin-specific CTLs that lyse target cells [3],lysis of target cells by CTLs primed in immunized mice [5]
"FSYGFFVI [mHpa (519–526), reference compound]",0.38,–,–,–,–,–
ILAVQIAYL [neuritin13–21],1.68,high,high,strong peptide-specific T cell response,able to elicit neuritin-specific CTLs,could lyse neuritin and HLA-A2.1 positive cells with high efficiency
KLNGRYISL [neuritin4–12],1.07,moderate,–,strong peptide-specific T cell response,able to elicit neuritin-specific CTLs,could lyse neuritin and HLA-A2.1 positive cells with high efficiency

# Now from value to sequence, other results behind:
FI (fluorescence index) [1],affinity to HLA-A2.1 (in words) [1],stability to HLA-A2.1 (in words) [4],Sequence,peptide-specific T cell response (frequency of IFN-γ-producing T cells) [2],induction of neuritin-specific CTLs that lyse target cells [3],lysis of target cells by CTLs primed in immunized mice [5]
1.24,moderate,–,LLPAFPVLL [neuritin121–129],strong peptide-specific T cell response,able to elicit neuritin-specific CTLs,could lyse neuritin and HLA-A2.1 positive cells with high efficiency
0.68,low,low,VLLVSLSAA [neuritin127–135],–,–,–
